Tests used:
[1] = target: T1, EtfAB:bcd (crotonyl-CoA-dependent NADH:ferredoxin oxidoreductase), NADH site on the bifurcating FAD of EtfAB (Megasphaera elsdenii, UniProt G0VLZ5+G0VLZ6); assay: stopped-flow at […] nm, hyperbolic fit of kobs of bf FAD reduction; format: biochemical; settings: oxidized complex, 6.5 μM; 50 mM Tris-HCl, 150 mM NaCl, pH 7.5, 10 °C; anaerobic; no ferredoxin or crotonyl-CoA; fast phase (bf FAD); read-out: apparent Kd
T1 construct: gene MELS_2127; full-length recombinant EtfAB and bcd, each with C-terminal Strep-II tag, E. coli BL21, mixed equimolar; assignment of Mels_2126 to EtfA and Mels_2127 to EtfB is inferred from the printed order; with Electron transfer flavoprotein subunit alpha; Acyl-CoA dehydrogenase, short-chain specific (butyryl-CoA dehydrogenase)
T1 sequence (G0VLZ6 1-270): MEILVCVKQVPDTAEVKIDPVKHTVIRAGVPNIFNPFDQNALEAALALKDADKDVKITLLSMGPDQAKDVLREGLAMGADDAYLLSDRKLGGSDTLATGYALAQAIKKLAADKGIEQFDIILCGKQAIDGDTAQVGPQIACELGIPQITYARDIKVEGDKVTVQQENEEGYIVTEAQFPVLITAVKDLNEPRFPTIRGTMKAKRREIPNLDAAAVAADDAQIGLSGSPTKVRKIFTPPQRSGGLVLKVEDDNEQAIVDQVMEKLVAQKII
T1 sequence (G0VLZ5 1-338): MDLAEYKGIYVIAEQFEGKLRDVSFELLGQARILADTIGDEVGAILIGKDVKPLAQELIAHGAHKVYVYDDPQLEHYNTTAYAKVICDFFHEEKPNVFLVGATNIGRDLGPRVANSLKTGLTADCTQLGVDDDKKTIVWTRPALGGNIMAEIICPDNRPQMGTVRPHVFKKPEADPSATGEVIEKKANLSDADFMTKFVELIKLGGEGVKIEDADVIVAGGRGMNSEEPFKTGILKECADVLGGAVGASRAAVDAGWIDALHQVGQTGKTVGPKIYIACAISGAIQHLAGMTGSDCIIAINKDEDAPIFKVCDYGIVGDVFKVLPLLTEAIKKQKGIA
T1 sequence (G0VLZ7 1-383 partner): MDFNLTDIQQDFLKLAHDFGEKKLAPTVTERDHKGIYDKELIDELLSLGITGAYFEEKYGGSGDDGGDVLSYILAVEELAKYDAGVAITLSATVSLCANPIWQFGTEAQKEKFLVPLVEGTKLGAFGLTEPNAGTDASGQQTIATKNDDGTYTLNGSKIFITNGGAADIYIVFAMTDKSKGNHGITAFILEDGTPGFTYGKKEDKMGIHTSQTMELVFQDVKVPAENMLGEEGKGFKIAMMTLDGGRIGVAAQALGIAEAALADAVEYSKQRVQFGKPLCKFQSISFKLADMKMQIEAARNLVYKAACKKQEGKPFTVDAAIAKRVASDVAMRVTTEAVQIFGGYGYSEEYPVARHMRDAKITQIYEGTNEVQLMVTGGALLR

[2] = target: T2, EtfAB:bcd (crotonyl-CoA-dependent NADH:ferredoxin oxidoreductase), crotonyl-CoA site on bcd (Megasphaera elsdenii, UniProt G0VLZ7); assay: stopped-flow reoxidation of dithionite-reduced complex; charge-transfer absorbance; oxidative titration; format: biochemical; settings: fully reduced EtfAB:bcd; 50 mM Tris-HCl, 150 mM NaCl, pH 7.5, 10 °C; anaerobic; no ferredoxin
T2 construct: gene MELS_2128; same complex as P1; bcd freed of persulfide-CoA adduct by dithionite; C-terminal Strep-II tags, E. coli BL21; with Electron transfer flavoprotein subunit alpha; Electron transfer flavoprotein subunit beta
T2 sequence (G0VLZ7 1-383): T1 sequence (G0VLZ7 1-383 partner)
T2 sequence (G0VLZ5 1-338 partner): T1 sequence (G0VLZ5 1-338)
T2 sequence (G0VLZ6 1-270 partner): T1 sequence (G0VLZ6 1-270)

Row | Kd [1] [µM] | SMILES | stopped-flow reoxidation of dithionite-reduced complex; charge-transfer absorban [2]
1 | 43 | NC(=O)C1=CN([C@@H]2O[C@H](COP(=O)(O)OP(=O)(O)OC[C@H]3O[C@@H](n4cnc5c(N)ncnc54)[C@H](O)[C@@H]3O)[C@@H](O)[C@H]2O)C=CC1 [NADH] | 
2 |  | C/C=C/C(=O)SCCNC(=O)CCNC(=O)[C@H](O)C(C)(C)COP(=O)(O)OP(=O)(O)OC[C@H]1O[C@@H](n2cnc3c(N)ncnc32)[C@H](O)[C@@H]1OP(=O)(O)O [crotonyl-CoA] | reoxidation of dithionite-reduced EtfAB:bcd6e- by crotonyl-CoA, which exhibits a [crotonyl-CoA]-independent rate constant
